Data reported in patent USRE36385E, “Glucopyranose derivatives” (Ono Pharmaceutical Co., Ltd., priority 1985, dated 1999).
Like-named read-outs stand apart in the source and are kept apart here.

Experiments:
[1] = system: Mice L-M cells; test: Inducing activities of TNF in vitro (cytotoxicity of serum from treated mice); assay type: cell-based, mice (ICR male mice serum; mice L-M cells); details: Mus musculus, iv; 10 μg via tail vein, serum 90 mins after; L-M cells 48 hrs; read-out: Cytotoxicities
Experimental: (2) Inducing activities of TNF in vitro
Inducing activity of TNF in vitro was measured by the following test system.
Corye parvum (manufactured by Ribi Immuno Chem. Research Inc.) was administered in ICR male mice 6-weeks old through the tail vein as priming agent. Ten days later, the compounds of the present invention (10 μg) were administered through tail vein as eliciting agent. 90 mins after the administration, blood was collected from the hearts, and blood serums were separated.
Mice L-M cells (10^4 /100 μl/well) suspended in a mixture of the diluted serum solution (100 μl/well) and RPMI 1640 cultivating solution (10% FEBS and 0.2% glucose; manufactured by Nissui Pharmaceutical Co.) were cultivated in an atmosphere of a mixed gas of 5% CO2 -[…], for 48 hrs at 37° C., after adding ^3 H-tymidine taken (0.5 μCi/20 μl/well). Amounts of ^3 H-tymidine taken into cells during the cultivation were measured.
Inducing activities of TNF were measured by cytotoxicity calculated as follows: [formula]

[2] = system: lympha cells; test: Mitogenic activity in vitro (Blastogenic index); assay type: cell-based, C3H/He male mice; details: Mus musculus, Lymphocyte
Experimental: (1) Mitogenic activity in vitro
Mitogenic activity means activity of activating mitogenic cell division, and in this test system, the amount of tymidine taken into lympha cells was measured and a ratio determined against a blank control call (Blastogenic index) was calculated.
For example, adding the compound prepared in example 1(c) to the test system induced 30 times the amount of tymidine taken into the lympha cells versus the control.
The amounts were measured by density of a radiolabel.
Mytogenic activity in vitro was measured by the following method (See Procedure Method of Immunoexperiment pp 315 published by Japan Immunology Society).
C3H/He male mice 6 weeks old were killed by bloodletting, and their spleens were isolated and homogenized. Homogenizing liquids were filtered with gauze, and suspending cells were prepared with PBS solution. After washing, lymphacytes fractions were gathered with lympholight M. Lymphacytes were suspended in RPMI 1640 cultivation solution (10% FEBS), and the solution was divided into 5×10^5 cells/180 μl/wells. Ten times concentration of the terminal concentration (1 μg/ml) of the compounds of the present invention were added with 20 μl portions to each of the wells.
After cultivation, ^3 H-tymidine 0.5 μCi/20 μl was added to the each cells. Cultivation was continued at 37° C. for another 24 hrs, and amounts of ^3 H-tymidine taken into the cells were measured. Mitogenic activities were calculated as by Blastogenic index in as follows. [formula]

[3] = Acute toxicity (LD50), intravenous in mice; details: mouse, in vivo
Experimental: For example, the values of LD50 of the compound prepared in example 1(c) was more than 300 mg/kg animal body weight by intravenous administration in mice.

[4] = system: Meth-A sarcoma; test: Anti-tumor effect on Balb/C mice inoculated with Meth-A Sarcoma; assay type: in vivo, female Balb/C mice; details: for Apperarent tumor weight: g ± standard error; for Survival period: iv tail vein Day 7, 9, 12, day ± standard error
Experimental: (1) Anti-tumor effect on Balb/C mice inocudlated with Meth-A Sarcoma
Anti-tumor effect was measured by the following procedure.
Tumor cells which had been maintained in ascites of Balb/C mouse generation after generation was used. One group is consisting of eight female Balb/C mice. Meth-A sarcoma tumor (1×10^5 cells/0.05 ml) was inoculated into left side of female mice of 7-week old (body weight: 18-20 g). Seven day after, when tumor size came to 6~9 mm, test compound was administered into tail vein first (day 7) and then administered two times (total three times: Day 7, 9, 12). Dose of test compound is 3 and 10 mg/kg or 3, 10 and 30 mg/kg and each test compound solution volume was 10 ml/kg. Anti-tumor effect is estimated by survival period (from inoculation day to death day) and tumor apparent weight. [formula] Test results about survival period and tumor appearent weight are shown in the following Tables II(1) and II(2), respectively.
In experiments, statistic analysis was done with unpaired Student's t(two tailed)-test. […] P values lower than 0.05 were judged to be significant.

[5] = terminal concentration 1 μg/ml, ratio of 3H-tymidine uptake vs blank control, read-out: Blastgenic Index

**Q.** Which cytotoxicity at 0.01 mg [1] does the source give for `CCCCCCCCCCCCCC(=O)OC(CCCCCCCCCCC)CC(=O)N[C@H]1COC[C@@H](OS(=O)(=O)O)[C@@H]1OC(=O)CCCCCCCCCCCCC` (single isomer, unassigned) [3(b), 2-deoxy-2-[3-tetradecanoyloxytetradecanoyl]amino-3-O-tetradecanoyl-4-O-sulfo-1,5-anhydro-D-xylitol] here?
**A.** 30.2%

**Q.** And the fold induction at 1 µg/mL [2, 5]?
**A.** 13.7

**Q.** With `CCCCCCCCCCC[C@@H](CC(=O)N[C@H]1C(O)O[C@H](CO)[C@@H](OS(=O)(=O)O)[C@@H]1OC(=O)CCCCCCCCc1ccccc1)OC(=O)CCCCCCCCc1ccccc1` (stereo partly drawn) [1(c), 2-deoxy-2-[3S-(9-phenylnonanoyloxy)tetradecanoyl]amino-3-O-(9-phenylnonanoyl)-4-O-sulfo-D-glucopyranose] as the compound, how does the LD50 [3] read?
**A.** > 300 mg/kg

**Q.** What about the Apperarent tumor weight ([4]; 3 mg/kg iv, Day 7) of the same compound?
**A.** 0.200 ± 0.074 g

**Q.** What about the Apperarent tumor weight ([4]; 3 mg/kg iv, Day 10) of the same compound?
**A.** 0.240 ± 0.118 g

**Q.** And the Apperarent tumor weight ([4]; 3 mg/kg iv, Day 13)?
**A.** 0.314 ± 0.206 g

**Q.** And the Apperarent tumor weight ([4]; 3 mg/kg iv, Day 16)?
**A.** 0.580 ± 0.412 g

**Q.** What about the Apperarent tumor weight ([4]; 10 mg/kg iv, Day 7) of the same compound?
**A.** 0.199 ± 0.044 g

**Q.** What about the Apperarent tumor weight ([4]; 10 mg/kg iv, Day 10) of the same compound?
**A.** 0.156 ± 0.084 g

**Q.** And the Apperarent tumor weight ([4]; 10 mg/kg iv, Day 13)?
**A.** 0.120 ± 0.099 g

**Q.** And the Apperarent tumor weight ([4]; 10 mg/kg iv, Day 16)?
**A.** 0.208 ± 0.253 g

**Q.** And the “effect on prolongation of life” value ([4]; at the dose of 10 mg/kg)?
**A.** significant effect

**Q.** And the “effect on tumore regression” value ([4]; at the dose of 10 mg/kg)?
**A.** significant effect

**Q.** And the Survival period ([4]; dose 3 (mg/kg))?
**A.** 46.8 ± 6.3 days

**Q.** What about the Survival period ([4]; dose 10 (mg/kg)) of the same compound?
**A.** 62.8 ± 18.8 days

**Q.** What about the cytotoxicity at 0.01 mg [1] of the same compound?
**A.** 86%

**Q.** What about the fold induction at 1 µg/mL ([2]; compound added to the test system, 1 μg/ml, read-out: amount of tymidine taken into the lympha cells versus the control) of the same compound?
**A.** 30

**Q.** And the fold induction at 1 µg/mL [2, 5]?
**A.** 30

**Q.** With `CCCCCCCCCCC[C@@H](CC(=O)N[C@H]1C(O)O[C@H](CO)[C@@H](OS(=O)(=O)O)[C@@H]1OC(=O)CCCCCCCCCc1ccccc1)OC(=O)CCCCCCCCCc1ccccc1` (stereo partly drawn) [1(d), 2-deoxy-2-[3S-(10-phenyldecanoyloxy)tetradecanoyl]amino-3-O-(10-phenyldecanoyl)-4-O-sulfo-D-glucopyranose] as the compound, how does the cytotoxicity at 0.01 mg [1] read?
**A.** 95%

**Q.** And the fold induction at 1 µg/mL [2, 5]?
**A.** 28

**Q.** For `CCCCCCCCCCC[C@H](CC(=O)N[C@H]1C(O)O[C@H](CO)[C@@H](OS(=O)(=O)O)[C@@H]1OC(=O)CCCCCCCCc1ccccc1)OC(=O)CCCCCCCCc1ccccc1` (stereo partly drawn) [1(h), 2-deoxy-2-[3R-(9-phenylnonanoyloxy)tetradecanoyl]amino-3-O-(9-phenylnonanoyl)-4-O-sulfo-D-glucopyranose], which cytotoxicity at 0.01 mg [1] is on record?
**A.** 81%

**Q.** What about the fold induction at 1 µg/mL [2, 5] of the same compound?
**A.** 37

**Q.** Which results are given for `CCCCCCCCCCC[C@@H](CC(=O)N[C@H]1C(O)O[C@H](CO)[C@@H](OS(=O)(=O)O)[C@@H]1OC(=O)CCCCCCCCc1ccc(Cl)cc1)OC(=O)CCCCCCCCc1ccc(Cl)cc1` (stereo partly drawn) [1(j), 2-deoxy-2-[3S-[9-(4-chlorophenyl)nonanoyloxy]tetradecanoyl]amino-3-O-[9-(4-chlorophenyl)nonanoyl]-4-O-sulfo-D-glucopyranose]?
**A.** cytotoxicity at 0.01 mg [1]: 69%; fold induction at 1 µg/mL [2, 5]: 25

**Q.** Which cytotoxicity at 0.01 mg [1] does the source give for `O=C(C[C@H](CCCCCCc1ccccc1)OC(=O)CCCCCCCCc1ccccc1)N[C@H]1C(O)O[C@H](CO)[C@@H](OS(=O)(=O)O)[C@@H]1OC(=O)CCCCCCCCc1ccccc1` (stereo partly drawn) [1(r), 2-deoxy-2-[3S-(9-phenylnonanoyloxy)-9-phenylnonanoyl]amino-3-O-(9-phenylnonanoyl)-4-O-sulfo-D-glucopyranose] here?
**A.** 86%

**Q.** And the fold induction at 1 µg/mL [2, 5]?
**A.** 17

**Q.** With `CCCCCCCCCCC[C@H](CC(=O)N[C@H]1CO[C@H](CO)[C@@H](OS(=O)(=O)O)[C@@H]1OC(=O)CCCCCCCCc1ccccc1)OC(=O)CCCCCCCCc1ccccc1` [1(s), 2-deoxy-2-[3R-(9-phenylnonanoyloxy)tetradecanoyl]amino-3-O-(9-phenylnonanoyl)-4-O-sulfo-1,5-anhydro-D-glucitol] as the compound, how does the cytotoxicity at 0.01 mg [1] read?
**A.** 100%

**Q.** And the fold induction at 1 µg/mL [2, 5]?
**A.** 58

**Q.** For `CCCCCCCCCCCCCC(=O)O[C@H]1[C@H](OS(=O)(=O)O)[C@@H](CO)OC(O)[C@@H]1NC(=O)c1ccc(OCCCCCCCCCC)c(OCCCCCCCCCC)c1` (stereo partly drawn) [Example 4, 2-deoxy-2-(3,4-didecyloxybenzoyl)amino-3-O-tetradecanoyl-4-O-sulfo-D-glycopyranose], which Apperarent tumor weight ([4]; 3 mg/kg iv, Day 7) is on record?
**A.** 0.212 ± 0.042 g

**Q.** What about the Apperarent tumor weight ([4]; 3 mg/kg iv, Day 10) of the same compound?
**A.** 0.469 ± 0.169 g

**Q.** What about the Apperarent tumor weight ([4]; 3 mg/kg iv, Day 13) of the same compound?
**A.** 0.650 ± 0.162 g

**Q.** What about the Apperarent tumor weight ([4]; 3 mg/kg iv, Day 16) of the same compound?
**A.** 1.004 ± 0.434 g

**Q.** What about the Apperarent tumor weight ([4]; 10 mg/kg iv, Day 7) of the same compound?
**A.** 0.205 ± 0.022 g

**Q.** What about the Apperarent tumor weight ([4]; 10 mg/kg iv, Day 10) of the same compound?
**A.** 0.361 ± 0.056 g

**Q.** And the Apperarent tumor weight ([4]; 10 mg/kg iv, Day 13)?
**A.** 0.455 ± 0.116 g

**Q.** And the Apperarent tumor weight ([4]; 10 mg/kg iv, Day 16)?
**A.** 0.846 ± 0.233 g

**Q.** What about the “effect on prolongation of life” value ([4]; at the dose of 3 mg/kg) of the same compound?
**A.** significant effect

**Q.** What about the “effect on tumore regression” value ([4]; at the dose of 3 mg/kg) of the same compound?
**A.** significant effect

**Q.** What about the Survival period ([4]; dose 3 (mg/kg)) of the same compound?
**A.** 48.5 ± 8.7 days

**Q.** What about the Survival period ([4]; dose 10 (mg/kg)) of the same compound?
**A.** 46.6 ± 7.2 days

**Q.** And the cytotoxicity at 0.01 mg [1]?
**A.** 20%

**Q.** And the fold induction at 1 µg/mL [2, 5]?
**A.** 27.7
